Here are results for 23 compounds from patent publication US20240158393A1, “PYRIDONE COMPOUNDS AND METHODS OF USE” (Exelixis, Inc., priority 2021, published 2024).

Where a name gives a salt, the structure may show the parent alone.

One assay has as its target T1, Human Met (Homo sapiens, UniProt P08581).
T1 construct: Human MET (residues 956-1390)
Put plainly: Human Met kinase assay (33P radiometric / HTRF KinEase). It counts as biochemical. The conditions noted are these: protocols of Examples D-1 and/or D-2; read-out: c-Met IC50. An outline of the steps:
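Two formats gave IC50s by curve fitting. HTRF KinEase used MET residues 956-1390 with 1 μM biotin-peptide and 3.0 μM ATP (Km) for 40 min at room temperature, ten doses in 3% DMSO, 665/620 nm read. The 33P transfer assay used mutant Met R974-S1390 A1209G/V1290L (3.4 nM), 10 μM ATP, 250 μM peptide, pH 7.0, 40 min, nine doses from 1 μM.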

Another assay has as its target T2, Human KDR (Homo sapiens, UniProt P35968).
T2 construct: Human KDR (residues K790-V1356, 55 nM); purchased Eurofins Pharma Discovery Services UK Limited (KinaseProfiler, B-1) and/or CarnaBio (B-2)
Put plainly: Human KDR kinase assay (33P radiometric / HTRF KinEase). The format is biochemical. Particulars: protocols of Examples B-1 and/or B-2. An outline of the steps: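 Radiometric: KDR K790-V1356 (55 nM), MOPS pH 7.0, myelin basic protein, 10 μM [γ-33P]ATP, 40 min at room temperature, filter-bound 33P counted; nine half-log doses, top 1 μM. HTRF: KDR 790-1356, 1 μM biotinylated peptide, ATP at Km (4.0 μM), 40 min, 10 doses. IC50 from logistic fits.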

T2 sequence (P35968 790-1356): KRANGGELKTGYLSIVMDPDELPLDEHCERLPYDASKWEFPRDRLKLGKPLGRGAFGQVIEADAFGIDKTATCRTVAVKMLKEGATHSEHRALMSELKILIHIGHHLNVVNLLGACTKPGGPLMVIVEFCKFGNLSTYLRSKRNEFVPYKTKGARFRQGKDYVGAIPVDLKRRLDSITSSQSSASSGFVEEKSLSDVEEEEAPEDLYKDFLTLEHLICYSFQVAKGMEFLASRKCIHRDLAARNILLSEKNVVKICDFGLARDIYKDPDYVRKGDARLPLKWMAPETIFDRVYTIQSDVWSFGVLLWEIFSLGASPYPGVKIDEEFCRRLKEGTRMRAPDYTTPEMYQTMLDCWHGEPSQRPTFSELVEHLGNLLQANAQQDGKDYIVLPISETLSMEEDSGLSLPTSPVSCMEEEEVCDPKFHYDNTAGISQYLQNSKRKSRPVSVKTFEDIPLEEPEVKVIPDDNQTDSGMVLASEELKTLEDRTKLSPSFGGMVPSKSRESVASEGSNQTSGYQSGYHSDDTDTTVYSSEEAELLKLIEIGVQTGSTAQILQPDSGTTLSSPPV
T1 sequence (P08581 974-1390 limits assumed): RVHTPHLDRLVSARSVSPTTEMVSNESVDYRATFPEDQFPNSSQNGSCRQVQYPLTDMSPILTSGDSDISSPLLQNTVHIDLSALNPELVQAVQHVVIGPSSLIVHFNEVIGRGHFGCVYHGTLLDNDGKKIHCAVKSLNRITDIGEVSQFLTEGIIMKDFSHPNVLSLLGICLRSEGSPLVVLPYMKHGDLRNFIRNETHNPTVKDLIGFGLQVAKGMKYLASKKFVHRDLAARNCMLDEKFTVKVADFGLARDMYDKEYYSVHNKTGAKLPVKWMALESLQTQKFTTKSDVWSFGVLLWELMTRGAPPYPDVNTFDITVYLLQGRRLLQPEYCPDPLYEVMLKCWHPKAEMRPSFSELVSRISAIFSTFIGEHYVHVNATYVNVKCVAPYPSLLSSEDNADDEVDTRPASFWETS

Consider `COc1cc2nccc(Oc3ccc(NC(=O)c4c(C)nc(C)c(C5=CCCCC5)c4O)cc3F)c2nc1OC` [Compound 2-3, 5-(Cyclohexen-1-yl)-N-[4-[(6,7-dimethoxy-1,5-naphthyridin-4-yl)oxy]-3-fluorophenyl]-4-hydroxy-2,6-dimethylpyridine-3-carboxamide], for which the half-maximal inhibitory concentration (IC50) on Human Met and on Human KDR was at most 100 nM in each case.

As to `COc1cc2nccc(Oc3ccc(NC(=O)c4c5n(c(C)c(C6=CCOCC6)c4=O)CCOC5)cc3F)c2nc1OC` [Compound 79, 7-(3,6-Dihydro-2H-pyran-4-yl)-N-[4-[(6,7-dimethoxy-1,5-naphthyridin-4-yl)oxy]-3-fluorophenyl]-6-methyl-8-oxo-3,4-dihydro-1H-pyrido[2,1-c][1,4]oxazine-9-carboxamide], the IC50 was at most 100 nM on Human Met and over 300 nM against Human KDR.

As for `COc1cnc2c(Oc3ccc(NC(=O)c4cnc(C)c(C5=CCOCC5)c4O)cc3)ccnc2c1` [Compound 7, 5-(3,6-Dihydro-2H-pyran-4-yl)-4-hydroxy-N-[4-[(7-methoxy-1,5-naphthyridin-4-yl)oxy]phenyl]-6-methylpyridine-3-carboxamide], the IC50 at Human Met and against Human KDR was at most 100 nM each time.

For `COc1cc2nccc(Oc3ccc(NC(=O)c4cn(CCF)c(C)c(C5=CCCC5)c4=O)cc3F)c2nc1OC` [Compound 11, 5-(Cyclopenten-1-yl)-N-[4-[(6,7-dimethoxy-1,5-naphthyridin-4-yl)oxy]-3-fluorophenyl]-1-(2-fluoroethyl)-6-methyl-4-oxopyridine-3-carboxamide], the concentration for half-maximal inhibition (IC50) at Human Met and against Human KDR was at most 100 nM each time.

`C=C(C)c1c(C)nc(C)c(C(=O)Nc2cc(F)c(Oc3ccnc4cc(OC)c(OC)nc34)cc2F)c1O` [Compound 6, N-[4-[(6,7-Dimethoxy-1,5-naphthyridin-4-yl)oxy]-2,5-difluorophenyl]-4-hydroxy-2,6-dimethyl-5-prop-1-en-2-ylpyridine-3-carboxamide]: the IC50 on Human Met and at Human KDR was at most 100 nM in each case.

Consider `COc1cnc2c(Oc3ccc(NC(=O)c4cn(C)c(C)c(C5=CCOCC5)c4=O)cc3F)ccnc2c1` [Compound 12, 5-(3,6-Dihydro-2H-pyran-4-yl)-N-[3-fluoro-4-[(7-methoxy-1,5-naphthyridin-4-yl)oxy]phenyl]-1,6-dimethyl-4-oxopyridine-3-carboxamide], for which the concentration for half-maximal inhibition (IC50) was at most 100 nM on Human Met and over 300 nM at Human KDR.

In the case of `CNC(=O)c1c(C)nc(C)c(C(=O)Nc2ccc(Oc3ccnc4cc(OC)c(OC)nc34)c(F)c2)c1O` [Compound 97, 3-N-[4-[(6,7-Dimethoxy-1,5-naphthyridin-4-yl)oxy]-3-fluorophenyl]-4-hydroxy-5-N,2,6-trimethylpyridine-3,5-dicarboxamide], the IC50 is over 300 nM at Human Met and 100 to 300 nM on Human KDR.

`COc1cc2nccc(Oc3ccc(NC(=O)c4c(C)nc(C)c(C(N)=O)c4O)cc3)c2nc1OC` [Compound 85, 3-N-[4-[(6,7-Dimethoxy-1,5-naphthyridin-4-yl)oxy]phenyl]-4-hydroxy-2,6-dimethylpyridine-3,5-dicarboxamide]: the IC50 on Human Met and on Human KDR was over 300 nM in each case.

As to `COc1cc2nccc(Oc3ccc(NC(=O)c4cnc(C)c(C5=CCCC5)c4O)cc3F)c2cc1OC` [Compound 18, 5-(Cyclopenten-1-yl)-N-[4-(6,7-dimethoxyquinolin-4-yl)oxy-3-fluorophenyl]-4-hydroxy-6-methylpyridine-3-carboxamide], the half-maximal inhibitory concentration (IC50) at Human Met and against Human KDR was at most 100 nM throughout.

On to `COc1cc2nccc(Oc3ccc(NC(=O)c4cn(C)c(C)c(C5CCCC5)c4=O)cc3F)c2nc1OC` [Compound 2, 5-Cyclopentyl-N-[4-[(6,7-dimethoxy-1,5-naphthyridin-4-yl)oxy]-3-fluorophenyl]-1,6-dimethyl-4-oxopyridine-3-carboxamide], for which the IC50 at Human Met and at Human KDR was at most 100 nM in each case.

For the compound `COc1cc2nccc(Oc3ccc(NC(=O)c4c(C)n(C)c(C)c(/C=C/C5CC5)c4=O)cc3F)c2nc1OC` [Compound 50, 5-[(E)-2-Cyclopropylethenyl]-N-[4-[(6,7-dimethoxy-1,5-naphthyridin-4-yl)oxy]-3-fluorophenyl]-1,2,6-trimethyl-4-oxopyridine-3-carboxamide], the half-maximal inhibitory concentration (IC50) on Human Met and against Human KDR was over 300 nM each time.

On to `COCCOc1cc2nccc(Oc3ccc(NC(=O)c4c(C)n(C)c(C)c(/C=C/C5CC5)c4=O)cc3F)c2nc1OC` [Compound 51, 5-[(E)-2-Cyclopropylethenyl]-N-[3-fluoro-4-[[6-methoxy-7-(2-methoxyethoxy)-1,5-naphthyridin-4-yl]oxy]phenyl]-1,2,6-trimethyl-4-oxopyridine-3-carboxamide], for which the IC50 at Human Met was at most 100 nM; at Human KDR, over 300 nM.

For `COCCOc1cc2nccc(Oc3ccc(NC(=O)c4c(C)nc(C)c(C5=CCOCC5)c4O)cc3F)c2nc1OC` [Compound 43, 5-(3,6-Dihydro-2H-pyran-4-yl)-N-[3-fluoro-4-[[6-methoxy-7-(2-methoxyethoxy)-1,5-naphthyridin-4-yl]oxy]phenyl]-4-hydroxy-2,6-dimethylpyridine-3-carboxamide], the 50% inhibitory concentration (IC50) at Human Met and on Human KDR was at most 100 nM in each case.

As to `COc1cc2nccc(Oc3ccc(NC(=O)c4c(C)nc(C)c(C5=CCCC5)c4O)cc3F)c2nc1OC` [Compound 1-2, 5-(Cyclopenten-1-yl)-N-[4-[(6,7-dimethoxy-1,5-naphthyridin-4-yl)oxy]-3-fluorophenyl]-4-hydroxy-2,6-dimethylpyridine-3-carboxamide hydrochloride], the half-maximal inhibitory concentration (IC50) at Human Met and against Human KDR was at most 100 nM each time.

On to `COCCOc1cc2nccc(Oc3ccc(NC(=O)c4cnc(C)c(/C=C/C(C)(C)C)c4O)cc3F)c2nc1OC` [Compound 40, 5-[(E)-3,3-Dimethylbut-1-enyl]-N-[3-fluoro-4-[[6-methoxy-7-(2-methoxyethoxy)-1,5-naphthyridin-4-yl]oxy]phenyl]-4-hydroxy-6-methylpyridine-3-carboxamide], for which the half-maximal inhibitory concentration (IC50) on Human Met and against Human KDR was at most 100 nM throughout.

Turning to `COc1cnc2c(Oc3ccc(NC(=O)c4cnc(C)c(C5=CCCC5)c4O)cc3F)ccnc2c1` [Compound 1-9, 5-(Cyclopenten-1-yl)-N-[3-fluoro-4-[(7-methoxy-1,5-naphthyridin-4-yl)oxy]phenyl]-4-hydroxy-6-methylpyridine-3-carboxamide], the half-maximal inhibitory concentration (IC50) on Human Met and against Human KDR was at most 100 nM each time.

Consider `COc1cc2nccc(Oc3ccc(NC(=O)c4c(C)cc(C)n(C5=CCCC5)c4=O)cc3F)c2nc1OC` [Compound 14, 1-(Cyclopenten-1-yl)-N-[4-[(6,7-dimethoxy-1,5-naphthyridin-4-yl)oxy]-3-fluorophenyl]-4,6-dimethyl-2-oxopyridine-3-carboxamide], for which the IC50 at Human Met and on Human KDR was at most 100 nM in each case.

Consider `COc1cc2nccc(Oc3ccc(NC(=O)c4c(C)n(C)c(C)c(N5CCOCC5)c4=O)cc3F)c2nc1OC` [Compound 88, N-[4-[(6,7-Dimethoxy-1,5-naphthyridin-4-yl)oxy]-3-fluorophenyl]-1,2,6-trimethyl-5-morpholin-4-yl-4-oxopyridine-3-carboxamide], for which the IC50 on Human Met and against Human KDR was over 300 nM each time.

As to `COc1cc2nccc(Oc3ccc(NC(=O)c4c(C)nc(C)c(C#N)c4O)cc3F)c2nc1OC` [Compound 87, 5-Cyano-N-[4-[(6,7-dimethoxy-1,5-naphthyridin-4-yl)oxy]-3-fluorophenyl]-4-hydroxy-2,6-dimethylpyridine-3-carboxamide], the half-maximal inhibitory concentration (IC50) at Human Met is over 300 nM; on Human KDR, 100 to 300 nM.

Consider `COc1cc2nccc(Oc3ccc(NC(=O)c4c(C)nc(C)c(C(C)C)c4O)cc3)c2nc1OC` [Compound 9, N-[4-[(6,7-Dimethoxy-1,5-naphthyridin-4-yl)oxy]phenyl]-4-hydroxy-2,6-dimethyl-5-propan-2-ylpyridine-3-carboxamide], for which the IC50 on Human Met and at Human KDR was at most 100 nM each time.

For `COCCOc1cc2nccc(Oc3ccc(NC(=O)c4cnc(C)c(C5=CCCCC5)c4O)cc3F)c2nc1OC` [Compound 34, 5-(Cyclohexen-1-yl)-N-[3-fluoro-4-[[6-methoxy-7-(2-methoxyethoxy)-1,5-naphthyridin-4-yl]oxy]phenyl]-4-hydroxy-6-methylpyridine-3-carboxamide], the IC50 at Human Met and on Human KDR was at most 100 nM in each case.

For `COc1cc2nccc(Oc3ccc(NC(=O)c4cnc(C)c(C5=CCCCC5)c4O)cc3)c2cc1OC` [Compound 24, 5-(Cyclohexen-1-yl)-N-[4-(6,7-dimethoxyquinolin-4-yl)oxyphenyl]-4-hydroxy-6-methylpyridine-3-carboxamide], the IC50 at Human Met and against Human KDR was at most 100 nM each time.

On to `COCCOc1cc2nccc(Oc3ccc(NC(=O)c4c(C)n(C)c(C)c(C5=CCCC5)c4=O)cc3F)c2nc1OC` [Compound 42, 5-(Cyclopenten-1-yl)-N-[3-fluoro-4-[[6-methoxy-7-(2-methoxyethoxy)-1,5-naphthyridin-4-yl]oxy]phenyl]-1,2,6-trimethyl-4-oxopyridine-3-carboxamide], for which the IC50 at Human Met and on Human KDR was at most 100 nM each time.
